In brackets after ≈: the same amount, converted by molar mass.
Tests used:
[1] = system: lesions of gastric mucosa; assay: Test with absolute ethanol (gastric mucosa lesions, erosion index); type: in vivo, Rats; details: for Relative activity related to the inhibition of the free acid: gastroprotective action (absolute ethanol test) compared to the gastric acid inhibiting activity (Shay test, rats, p.o.); for activity in the test with absolute ethanol: result in words
Method: Rats of both sexes weighing 200 to 250 g, each previously starved for 24 hours, were used in this experiment. […] After one hour following the administration, the animals were killed by an overdose of ether, the stomach was excised and the alterations of gastric mucosa were examined. The lengths of the erosions were measured and summarized (expressed in mm) for each stomach to obtain the erosion index by calculating the average value of the group. The inhibition was calculated in percentage by comparing the value of the group treated with ethanol to that of the control group treated only with the vehicle. Various doses of the compounds to be tested were administered, perorally, in a volume of 5 ml/kg using a pretreatment time of 60 minutes. Eight rats were used for each dose. (A. Robert, Gastroenterology 77 [1979], 761 to 767). In the test with absolute ethanol which is useful for showing the gastroprotective activity, as to the effective dose range, a sharp difference can be made between the cytoprotective effect and the gastric acid inhibition, the latter resulting in the inhibition of the gastric erosion.

[2] = Acute toxicity (LD50, Litchfield and Wilcoxon); details: mouse, in vivo, po; NMRI mice of both sexes, peroral, 7 days observation; "higher than" = highest dose administered without any death
Method: The acute toxicity was determined on NMRI strain mice of both sexes weighing 20 to 25 g each by using 6 animals for each dose. The compounds to be tested were administered perorally in a volume of 20 ml/kg, the highest dose applied was 1 000 mg/kg. After the administration the animals were kept under usual laboratory conditions for 7 days. The LD50 values were calculated according to the method of Litchfield and Wilcoxon (J. Pharmacol. Exp. Ther., 96 [1949], 99).
The data given as "higher than" a certain value mean the highest dose administered without noting any death of animals.

[3] = system: lesions of gastric mucosa; assay: Test with ethanol containing hydrochloric acid (erosion frequency and erosion index); type: in vivo, Rats; details: for Inhibition of the erosion frequency Relative activity / Inhibition of the erosion index Relative activity: ED50 of cetraxate divided by ED50 of the compound tested; for ED50: Rattus norvegicus, po, read-out: Inhibition of the erosion frequency ED50 p.o.; for ED50 / Inhibition of the erosion index ED50 p.o.: rats, peroral, conc. hydrochloric acid/absolute ethanol 1 to 50
Text: The principle of the method consists in that, simultaneously with the administration of absolute ethanol, hydrochloric acid is introduced to the stomach. Thus, the influence on systemic gastric acid inhibition action can be eliminated by the presence of the exogenous acid.
The reagent used in this test was a mixture of concentrated aqueous hydrochloric acid and absolute ethanol in a weight ratio of 1 to 50 in accordance with the dilution ratio used by Yamazaki et al. (Japan J. Pharmacol., 55 [1991], 415 to 424). In other respects, the experiment was performed as described under test 2.1., however, in addition to the erosion index calculated from the lenghts of the erosions in mm, the ratio of occurence of animals showing at least one gastric erosion within a test group, i.e. the erosion frequency, was also evaluated.

Helicobacter pylori = assay: Antibacterial effect on Helicobacter pylori (MIC on blood agar); type: cell-based; details: for MIC: Helicobacter pylori, 72 h, 37°C
Method: Helicobacter pylori strains used in these experiments were obtained from the biopsial samples of the stomachs of patients suffering from ulcerative diseases of the gastrointestinal system. From the pure culture of isolates a thick suspension was prepared with cysteine-inositol solution suitable for lyophilisation, and the suspension obtained was maintained in cold-resistant plastic ampoules in a deep-freezing chamber at a temperature of about -196°C. For the determination of the inhibitory effect of the compounds tested on Helicobacter pylori, blood agar containing 10 mg/litre of a stereoisomer of 23-[aminocarbonyl]-12-[{2-0-(3-amino-2,3,6-trideoxy-3-C-methyl-α-L-lyxo-hexopyranosyl)-β-D-glucopyranosyl}-oxy]-8,16-di-[chloro]-2,3,4,5,19,20,21,22,23,24,25,26,27,28,29,30-hexa-[decahydro]-5,19,34,36,38-penta-[hydroxy]-28-[{4-(methyl)-2-(methylamino)-1-(oxo)-pentyl}-amino]-3,21,25,28,41-penta-[oxo]-1H-6,9:15,18-[dietheno]-4,30-[iminomethano]-31,35-[metheno]-11,27,13-[[1]-propene[1,2]diyl[3]ylidene]-13H-10,14,2,22,26,29-benzodioxatetraazacycloheptatriacontine-1-carboxylic acid 〈vancomycin〉 and 25 mg/litre of [1R-(1R^x,3S^x,5R^x,6R^x,9R^x,11R^x,15S^x,16R^x,17R^x,18S^x,19E,21E,23E,25E,27E,29E,31E,33R^x,35S^x,36R^x,37S^x)]-33-[{3-(amino)-3,6-di-(deoxy)-β-D-mannopyranosyl}-oxy]-1,3,5,6,9,11,17,37-octa-[hydroxy]-15,16,18-tri-[methyl]-13-[oxo]-14,39-di-[oxa]-bicyclo-[33.3.1]-nonatriaconta-19,21,23,25,27,29,31-heptaene-36-carboxylic acid 〈amphotericin B〉 was used (C. A. M. McNulty and I. C. Dent: Susceptibility of clinical isolates of Campylobacter pylori to twenty one antimicrobial agents. Book of Abstracts, 4th European Congress of Clinical Microbiology, Nice [1989]).
The plates containing the strains were cultivated at 37°C for 72 hours under a gaseous atmosphere containing 10% of carbon dioxide and 5% of oxygen (D. M. Jones et al., J. Clin. Pathol., 37 [1984], 1 002).
The culture media were inoculated with a dilution of the broth culture of the strains grown overnight or with a suspension prepared from a culture obtained on a solid medium. About 10^5 of germs were applied to the surface of each plate.
A series of dilution were prepared from the compound to be tested. The MIC (minimal inhibiting concentration) value of the compounds tested was considered to be the lowest concentration inhibiting the growth of the test organism completely. The results obtained for (R,S)-2-(E)-[4'-(chloro)-phenylmethylene]-1-(E)-[3''-(hexylamino)-2''-(hydroxy)-propoxy-imino]-cyclohexane and colloidal bismuth subcitrate used as reference are given in Table IVa.

gastric acid secretion = assay: Effect on the gastric acid secretion (Shay's method, pylorus ligation); type: in vivo, Wistar rats; details: test according to Shay, result in words
Method: The influence of the compounds on the gastric acid secretion was examined on starved Wistar rats of both sexes weighing 180 to 240 g each by using Shay's method (H. Shay et al., Gastroenterology, 5 [1945], 45). The compounds to be tested were given, perorally, 3 hours before the ligation of the pylorus. Four hours after the operation, the animals were killed by an overdose of ether, the stomach was excised, the stomach content was centrifuged and the free hydrochloric acid content of the gastric juice was determined by titration in the presence of Töpfer's reagent. The percentage of inhibition and then the ED50 values were determined by calculating average values for the groups and comparing those to the average values for the control group.

Compound | Relative activity related to the inhibition of the free acid [1] | LD50 at 168 h [2] [mg/kg] | Inhibition of the erosion frequency Relative activity [3] | Inhibition of the erosion index Relative activity [3] | ED50 [3] [mg/kg] | Inhibition of the erosion index ED50 p.o. [3] [mg/kg] | further results
CC(C)N(CC(O)CO/N=C1\CCCC\C1=C/c1ccc(Br)cc1)C(C)C (racemic) [(R,S)-2-(E)-[4'-(Bromo)-phenylmethylene]-1-(E)-[3''-(diisopropylamino)-2''-(hydroxy)-propoxy-imino]-cyclohexane] | about 25.0 | 1000 | 9.9 | 3.7 | 19.1 | 5.9 | –
OC(CNC1CCCCC1)CO/N=C1\CCCC\C1=C/c1ccc(Cl)cc1 (racemic) [(R,S)-2-(E)-[4'-(Chloro)-phenylmethylene]-1-(E)-[3''-(cyclohexylamino)-2''-(hydroxy)-propoxy-imino]-cyclohexane] | 30.0 | > 1000 | – | 2.1 | 30 to 60 | 10.3 | –
CN(C)CC(O)CO/N=C1\CCCC\C1=C/c1ccc(Cl)cc1 (racemic) [(R,S)-2-(E)-[4'-(Chloro)-phenylmethylene]-1-(E)-[3''-(dimethylamino)-2''-(hydroxy)-propoxy-imino]-cyclohexane] | – | > 1000 | – | 1.4 | 30 to 60 | 15.8 | –
CCCCCCNCC(O)CO/N=C1\CCCC\C1=C/c1ccc(Cl)cc1 (racemic) [(R,S)-2-(E)-[4'-(Chloro)-phenylmethylene]-1-(E)-[3''-(hexylamino)-2''-(hydroxy)-propoxy-imino]-cyclohexane] | 25.0 | > 1000 | 7.5 | 3.1 | 25.2 | 7.2 | MIC (Helicobacter pylori; Helicobacter pylori strain 867/90): 1.9 µg/mL (≈ 4.83 µM); MIC (Helicobacter pylori; Helicobacter pylori strain 1596): 0.9 µg/mL (≈ 2.29 µM); MIC (Helicobacter pylori; Helicobacter pylori strain 3842): 1.9 µg/mL (≈ 4.83 µM); MIC (Helicobacter pylori; Helicobacter pylori strain 6656): 1.9 µg/mL (≈ 4.83 µM); MIC (Helicobacter pylori; Helicobacter pylori strain 6709): 1.9 µg/mL (≈ 4.83 µM); effectiveness against Helicobacter pylori (Helicobacter pylori; compared with colloidal bismuth subcitrate, result in words): substantially more effective in the test than the colloidal bismuth subcitrate
CN(CC(O)CO/N=C1\CCCC\C1=C/c1ccc(Cl)cc1)C1CCCCC1 (racemic) [(R,S)-2-(E)-[4'-(Chloro)-phenylmethylene]-1-(E)-[3''-{N-(methyl)-N-(cyclohexyl)-amino}-2''-(hydroxy)-propoxy-imino]-cyclohexane] | – | > 1000 | – | – | – | – | –
CCCCCCNCC(O)CO/N=C1\CCCC\C1=C/c1ccccc1 (racemic) [(R,S)-2-(E)-[Phenylmethylene]-1-(E)-[3'-(hexylamino)-2'-(hydroxy)-propoxy-imino]-cyclohexane] | about 250.0 | > 1000 | 7.4 | 1.9 | 25.7 | 11.5 | –
NC[C@H]1CC[C@H](C(=O)Oc2ccc(CCC(=O)O)cc2)CC1 [cetraxate, 3-[4-{Trans-4-(aminomethyl)-cyclohexylcarbonyloxy}-phenyl]-propionic acid, reference compound] | – | – | 1.0 | 1.0 | 189 | 22.0 | activity in the test with absolute ethanol [1]: nearly identical low activity; gastric acid secretion inhibition (gastric acid secretion): only a moderate gastric acid secretion inhibition; LD50 at 7 days [2]: > 1000 mg/kg
COc1ccc2[nH]c([S+]([O-])Cc3ncc(C)c(OC)c3C)nc2c1 (stereo not shown) [omeprazole, 5-[Methoxy]-2-[{4-(methoxy)-3,5-di-(methyl)-2-pyridyl}-methylsulfinyl]-benzimidazole, reference compound] | – | – | – | – | – | – | LD50 at 7 days [2]: > 4000 mg/kg
the basic aluminum salt of saccharose hydrogen sulfate [sucralfate, reference compound] | – | – | – | – | – | – | activity in the test with absolute ethanol [1]: nearly identical low activity

Reference: EP0636368B1, “The use of 2- phenylmethylene -1- 3'-(amino)-2'-(hydroxy)--propoxy-imino -cyclohexane derivatives” (EGIS GYOGYSZERGYAR RT., priority 1993, dated 1995)
